# According to US5707815A, “Mammalian monocyte chemoattractant protein receptors and assays using them” (Regents of the University of California, priority 1995, dated 1998):
# Entries after “also recorded” stand apart in the source; their conditions may differ.
# Experiments:
# MCP-1RB receptor = assay: Intracellular calcium mobilization (indo-1) in stably transfected MCP-1RB/293 cells; type: cell-based, human; details: MCP-1RB/293 cells
# Experimental: Calcium mobilization in 293 cells was then investigated. Transfected HEK-293 cells were grown until confluent, trypsinized briefly, washed with phosphate buffered saline containing 1 mg/ml BSA (PBS-BSA), and resuspended in serum-free MEM-EBSS supplemented with 1 mg/ml BSA and 10 mM HEPES (pH 7.0) at a density of 2×10^7 cells/ml. The cells were incubated in the dark at 37° C. for 20 min in the presence of 5-10 μg/ml indo-1 AM (Molecular Probes, Inc., Eugene, Oreg.). Nine volumes of PGS-BSA were added, and the cells were incubated for an additional 10 min at 37° C., pelleted by centrifugation, and washed twice with 50 ml of the PBS-BSA solution. Washed, indo-1-loaded cells were then resuspended in Hank's Balanced Salt Solution (1.3 mM Ca^2+) supplemented with 1 mg/ml BSA (HBS-BSA) at a density of approximately 0.5×10^6 cells/ml at room temperature. To measure intracellular calcium ([Ca^2+ ]i), 0.5 ml of the cell suspension was placed in a quartz cuvette in a Hitachi F-2000 fluorescence spectrophotometer. […] Intracellular calcium was measured by excitation at 350 nm and fluorescence emission detection at 490 nm (F1) and 410 nm (F2) wavelengths. The [Ca^2+ ]i was estimated by comparing the 490/410 fluorescence ratio after agonist application (R) to that of calibration ratios measured at the end of each run, according to the equation:
# [Ca^2+ ]i =Kd ×[(R--Rmin)/(Rmax
# where Rmax and Rmin represent the fluorescence ratio under saturating (1.3 mM Ca^2+) and nominally free (10 mM EGTA, Sigma Chemical Co.) calcium conditions, Kd is the dissociation constant of calcium for indo-1, R is the fluorescence ratio, and Sf2/Sb2 is the fluorescence ratio of free and bound indo-1 dye at 410 nm. See Thomas, AP and Delaville, F (1991) in Cellular Calcium, a Practical Approach, Oxford Univ. Press, pp. 1-54.
# To quantirate calcium responses, MCP-1 dose response curves were generated in each experiment and the results were expressed as a percent of the maximum calcium signal (at 300 nM MCP-1) measured in that experiment. The changes in [Ca^2+ ]i levels in response to each concentration of agonist were determined by subtracting the baseline from peak [Ca^2+ ]i levels, which were determined by averaging 5 seconds of data prior to agonist addition and surrounding the peak response, respectively. In experiments done to determine the role of extracellular calcium, 3 mM EGTA was added 60-90 seconds prior to MCP-1. […] All experiments were performed at room temperature.
# Inhibition of MCP-1RB receptor activation by bordetella pertussis toxin was investigated. Pertussis toxin (List Biological Labs, Inc., Campbell, Calif.) was dissolved in 0.01M sodium phosphate, pH 7.0, 0.05M sodium chloride and diluted into normal serum containing media at final concentrations of 0.1 ng/ml to 100 ng/ml, and incubated with cells overnight (14-16 h) at 37° C. The conditions of the Pertussis toxin treatment of the 293 cells were identical for calcium fluorimetric and adenylyl cyclase experiments. In the adenylyl cyclase experiments, the Pertussis toxin was added at the same time as [^3 H]adenine.
# Dose response curves generated in the calcium fluorimetric and adenylyl cyclase inhibition assays were fit by a nonlinear least squares program to the logistic equation:
# Effect=max effect/[1+(EC50 /(agonist)^n)]
# where n and EC50 represent the Hill coefficient and the agonist concentration that elicited a half-maximal response, respectively, and were derived from the fitted curve. Curve fitting was done with the computer program "Prism" (by Graph Pad, San Diego, Calif.). Results represent the mean ±SE. The 95% confidence intervals (CI) of the EC50 and IC50 values, when given, were calculated from the log EC50 and IC50 values, respectively.
# [1] = test system: undifferentiated human HL-60 cells; assay: MCP-1 induced calcium flux in HL-60 cells; type: cell-based; details: undifferentiated HL-60 cells
# Experimental: Because monocytes are difficult to isolate in usable quantity and express less than 2000 high affinity MCP-1 binding sites per cell, a cultured cell line that responded well to MCP-1 had to be identified. Using the calcium effiux assay as described in Vu, Cell 64:1057-68(1991), MCP-1 induced calcium fluxes in various cell lines were measured. […] In contrast, a dose-dependent calcium flux was detected in MM6 cells, with half maximal stimulation at 4nM MCP-1.
substance,measurement,setting,value
monocyte chemoattractant protein-1 [MCP-1],concentration giving small but reproducible calcium signals,MCP-1RB receptor,100 pM
same,homologous desensitization to a second challenge with MCP-1,MCP-1RB receptor,refractory to activation by a second challenge; also recorded: desensitized the cells to a second addition
same,time to peak of calcium transients after addition,MCP-1RB receptor,4 to 8 s
same,EC50,MCP-1RB receptor; average of four full dose-response curves,2 to 4 nM
same,MCP-1 induced calcium flux,[1],No calcium flux was detected
